According to ChEMBL document CHEMBL5096210, “Discovery of Betulinic Acid Derivatives as Potent Intestinal Farnesoid X Receptor Antagonists to Ameliorate Nonalcoholic Steatohepatitis” (J Med Chem, 2022):
The source made the active and inactive calls. The calls are words filed in the database; no cut-off is given here.

Tests used:
[1] = Cytotoxicity against HEK293T cells cotransfected with pCMV-Script-hFXR/pGL4.11-hSHP-Luciferase incubated for 24 hrs in presence of GW4064 by celltiter-blue cell viability assay; format: toxicity, cell-based, HEK-293T; conditions: human
[2] = target: T1, Bile acid receptor (Mus musculus) (UniProt Q60641); assay: In vivo antagonist activity against FXR in mouse assessed as reduction in Shp level in presence of GW4064; format: functional
T1 sequence (whole entry): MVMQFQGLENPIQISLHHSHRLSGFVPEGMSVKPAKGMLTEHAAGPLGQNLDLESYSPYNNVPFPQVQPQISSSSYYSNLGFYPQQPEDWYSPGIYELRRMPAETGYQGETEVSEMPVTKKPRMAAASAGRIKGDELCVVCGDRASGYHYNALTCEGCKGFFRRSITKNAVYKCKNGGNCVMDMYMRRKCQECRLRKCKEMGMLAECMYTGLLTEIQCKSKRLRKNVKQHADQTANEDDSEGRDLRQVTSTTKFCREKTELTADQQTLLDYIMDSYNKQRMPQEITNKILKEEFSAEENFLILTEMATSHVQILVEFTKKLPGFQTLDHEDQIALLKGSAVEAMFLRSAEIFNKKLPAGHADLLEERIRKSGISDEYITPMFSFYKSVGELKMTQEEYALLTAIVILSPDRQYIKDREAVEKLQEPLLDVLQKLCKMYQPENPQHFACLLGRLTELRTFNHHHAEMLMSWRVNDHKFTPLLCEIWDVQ

[3] = target: T1, Bile acid receptor (Mus musculus); assay: In vivo antagonist activity against FXR in microbeta depleted mouse assessed as reduction in taurocholic acid induced Shp mRNA expression in ileum at 10 mg/kg, po incubated for 2 to 48 hrs; format: functional, organism-based; conditions: time 2-48 hrs
[4] = target: T1, Bile acid receptor (Mus musculus); assay: In vivo antagonist activity against FXR in microbeta depleted mouse assessed as reduction in taurocholic acid induced Fgf15 mRNA expression in ileum at 10 mg/kg, po incubated for 2 to 48 hrs; format: functional, organism-based; conditions: time 2-48 hrs
[5] = target: T1, Bile acid receptor (Mus musculus); assay: In vivo antagonist activity against FXR in mouse assessed as reduction in Tgr5 expression in small intestine organoids; format: functional
[6] = Drug metabolism in C57BL6 mouse serum assessed as ((1S,3aS,5aR,5bR,7aR,9R,11aR,11bR,13aR,13bR)-9-hydroxy-1-isopropyl-5a,5b,8,8,11a-pentamethylicosahydro-1H-cyclopenta[a]chrysene-3a-carbonyl)glycine formation at 10 mg/kg, po administered as single dose measured after 2 hrs; format: ADME, organism-based; conditions: in vivo
[7] = Drug metabolism in C57BL6 mouse Gall bladder assessed as ((1S,3aS,5aR,5bR,7aR,9R,11aR,11bR,13aR,13bR)-9-hydroxy-1-isopropyl-5a,5b,8,8,11a-pentamethylicosahydro-1H-cyclopenta[a]chrysene-3a-carbonyl)glycine formation at 10 mg/kg, po administered as single dose measured after 2 hrs; format: ADME, organism-based; conditions: in vivo
Mus musculus [8] = assay: Anti-NASH activity in GAN-induced mouse assessed as increase in insulin sensitivity at 10 mg/kg; format: functional, organism-based
Mus musculus [9] = assay: Anti-NASH activity in GAN-induced […] mouse assessed as increase in rectal temperature at 10 mg/kg; format: functional, organism-based
Mus musculus [10] = assay: Anti-NASH activity in GAN-induced […] mouse assessed as upregulation of […] expression in inguinal white adipose tissue at 10 mg/kg; format: functional, organism-based
Mus musculus [11] = species on record: Mus musculus; assay: Anti-NASH activity in GAN diet-induced […] mouse assessed as reduction in Dgat2 level; format: functional, organism-based
Mus musculus [12] = species on record: Mus musculus; assay: Anti-NASH activity in GAN diet-induced […] mouse assessed as reduction in liver weight; format: functional, organism-based
Mus musculus [13] = species on record: Mus musculus; assay: Anti-NASH activity in GAN diet-induced […] mouse assessed as reduction in hepatic triglycerides level; format: functional, organism-based
Mus musculus [14] = species on record: Mus musculus; assay: Anti-NASH activity in GAN diet-induced […] mouse assessed as reduction in hepatic cholesterol level; format: functional, organism-based
Mus musculus [15] = species on record: Mus musculus; assay: Anti-NASH activity in GAN diet-induced […] mouse assessed as reduction in AST level; format: functional, organism-based
Mus musculus [16] = species on record: Mus musculus; assay: Anti-NASH activity in GAN diet-induced […] mouse assessed as decrease in hydroxyproline in liver; format: functional, organism-based
Liver [17] = assay: Anti-NASH activity in GAN diet-induced […] mouse liver assessed as reduction in macrosteatosis by Oil Red O staining based assay; format: functional
Liver [18] = assay: Anti-NASH activity in GAN diet-induced […] mouse liver assessed as reduction in hepatocyte ballooning by Oil Red O staining based assay; format: functional, cell-based
Liver [19] = assay: Anti-NASH activity in GAN diet-induced […] mouse liver assessed as reduction in hepatocyte ballooning by Sirius red staining based analysis; format: functional, cell-based
Mus musculus [20] = species on record: Mus musculus; assay: Anti-NASH activity in GAN diet-induced […] mouse assessed as downregulation of Ccl2 level; format: functional, organism-based
Mus musculus [21] = species on record: Mus musculus; assay: Anti-NASH activity in GAN diet-induced […] mouse assessed as reduction in cleaved caspase 1 level; format: functional, organism-based
Mus musculus [22] = species on record: Mus musculus; assay: Anti-NASH activity in GAN diet-induced […] mouse assessed as suppression of FXR expression; format: functional, organism-based
Mus musculus [23] = species on record: Mus musculus; assay: Anti-NASH activity in GAN diet-induced […] mouse assessed as suppression of Fgf15 expression; format: functional, organism-based
Mus musculus [24] = species on record: Mus musculus; assay: Anti-NASH activity in GAN diet-induced […] mouse assessed as upregulation of Cyp8b1 mRNA expression in liver; format: functional, organism-based
Mus musculus [25] = species on record: Mus musculus; assay: Anti-NASH activity in GAN diet-induced […] mouse assessed as upregulation CYP7A1 protein by Western blot analysis; format: functional, organism-based
Mus musculus [26] = species on record: Mus musculus; assay: Anti-NASH activity in GAN diet-induced […] mouse assessed as decrease in cholesterol in liver; format: functional, organism-based
Mus musculus [27] = species on record: Mus musculus; assay: Anti-NASH activity in GAN diet-induced […] mouse assessed as increase in Bsep mRNA level; format: functional, organism-based
Mus musculus [28] = species on record: Mus musculus; assay: Anti-NASH activity in GAN diet-induced […] mouse assessed as reduction in N-tcp mRNA level; format: functional, organism-based
Mus musculus [29] = assay: Anti-NASH activity in GAN diet-induced […] mouse assessed as reduction of dihydroceramide level in serum administered orally for 12 weeks; format: functional, organism-based; conditions: route po
Mus musculus [30] = assay: Anti-NASH activity in GAN diet-induced […] mouse assessed as reduction of sphinogo-myelin level in serum administered orally for 12 weeks; format: functional, organism-based; conditions: route po
Mus musculus [31] = assay: Anti-NASH activity in HFMCD diet-induced […] mouse assessed as reduction in AST serum level at 30 mg/kg, po for 4 weeks; format: functional, organism-based
Mus musculus [32] = assay: Anti-NASH activity in HFMCD diet-induced […] mouse assessed as reduction in ALT serum level at 30 mg/kg, po for 4 weeks; format: functional, organism-based
Mus musculus [33] = assay: Anti-NASH activity in HFMCD diet-induced […] mouse assessed as reduction in hepatic hydroxyproline level at 30 mg/kg, po for 4 weeks; format: functional, organism-based
Mus musculus [34] = species on record: Mus musculus; assay: Anti-NASH activity in GAN diet-induced […] mouse assessed as increase in hepatic bile acid synthesis; format: functional, organism-based
Mus musculus [35] = species on record: Mus musculus; assay: Anti-NASH activity in GAN diet-induced […] mouse assessed as increase in bile acid level in liver; format: functional, organism-based

SMILES: CCCC(=O)O[C@@H]1CC[C@]2(C)[C@H]3CC[C@@H]4[C@H]5[C@H](C(C)C)CC[C@]5(C(=O)NCC(=O)O)CC[C@@]4(C)[C@]3(C)CC[C@H]2C1(C)C
- IC50 at 24 h [1]: > 100 µM
- Activity [2]: Active
- Activity [3]: Active
- Activity [4]: Active
- Activity [5]: Active
- Drug metabolism [6]: Metabolite_Detected
- Drug metabolism [7]: Metabolite_Detected
- Activity (Mus musculus [8]): Active
- Activity (Mus musculus [9]): Active
- Activity (Mus musculus [10]): Active
- Activity (Mus musculus [11]): Active
- Activity (Mus musculus [12]): Active
- Activity (Mus musculus [13]): Active
- Activity (Mus musculus [14]): Active
- Activity (Mus musculus [15]): Active
- Activity (Mus musculus [16]): Active
- Activity (Liver [17]): Active
- Activity (Liver [18]): Active
- Activity (Liver [19]): Active
- Activity (Mus musculus [20]): Active
- Activity (Mus musculus [21]): Active
- Activity (Mus musculus [22]): Active
- Activity (Mus musculus [23]): Active
- Activity (Mus musculus [24]): Active
- Activity (Mus musculus [25]): Active
- Activity (Mus musculus [26]): Active
- Activity (Mus musculus [27]): Active
- Activity (Mus musculus [28]): Active
- Activity (Mus musculus [29]): Active
- Activity (Mus musculus [30]): Active
- Activity (Mus musculus [31]): Active
- Activity (Mus musculus [32]): Active
- Activity (Mus musculus [33]): Active
- Activity (Mus musculus [34]): Active
- Activity (Mus musculus [35]): Active
